Assay results from patent US20240307424A1, “COMPOSITION CAPABLE OF PROMOTING HAIR GROWTH, DRUG CAPABLE OF PROMOTING HAIR GROWTH, AND APPLICATION THEREOF” (GUANGXI XINHAI PHARMACEUTICAL TECHNOLOGY CO., LTD., priority 2022, published 2024).

What was measured:
[1] = test system: hair removal area on the back of mice; experiment: Hair growth on the back of mice after hair removal (photos, hair growth speed score); assay type: in vivo, KM mice; conditions: twice a day, 2 weeks; for hair growth speed (score 0-3) of the hair removal area: high dose 2 mg/mL, compared with the model group
Excerpt: The experimental animals are purchased from National Institutes for Food and Drug Control with a production license No. of SCXK2017 (Jing)-0005, KM mice, male, 18-20 g. SPF grade.
Except for a normal control group, the back of all the mice in the other groups are subjected to hair removal.
The experimental animals are purchased from National Institutes for Food and Drug Control with the production license No. of SCXK2017 (Jing)-0005, KM mice, male, 18-20 g, spf grade.
Except for the normal control group, the back of all the mice in the other groups are subjected to hair removal.

[2] = test system: hair follicles in the skin tissue of the hair removal area on the back of mice; experiment: Number of hair follicles in skin tissue of the hair removal area (HE staining); assay type: in vivo, KM mice; conditions: twice a day, 2 weeks, compared with the model group
Excerpt: After the mice are sacrificed, the skin tissue of the back is fixed, is embedded with paraffin to obtain a paraffin-embedded section, is subjected to HE staining, and is counted the number of hair follicles to evaluate the effect of hair growth promotion.

[3] = Weight of mice after administration for 2 weeks
Description: Animal grouping: a blank group, a model group, a Vaseline group, a pulchinenoside B4-low dose group, a pulchinenoside B4-medium dose group, a pulchinenoside B4-high dose group, a positive drug of minoxidil liniment group, 10 mice per group, pulchinenoside B4 and minoxidil liniment in each group are dissolved with Vaseline. The mice in the Vaseline group are administered Vaseline, the low dose, and medium dose and high dose of pulchinenoside B4 are 0.5, 1, and 2 mg/mL, respectively. The mice are administered twice a day, after 2 weeks of continuous administration, the skin tissue of a hair removal area on the back of the mice in each group is taken, is fixed and is subjected to HE staining, and the number of hair follicles is counted under a microscope.
Animal grouping: a blank group, a model group, a Vaseline group, a pulchinenoside B5-low dose group, a pulchinenoside B5-medium dose group, a pulchinenoside B5-high dose group, a positive drug of minoxidil liniment group, 10 mice per group, pulchinenoside B5 and minoxidil liniment in each group are dissolved with Vaseline. […] The mice are administered twice a day, after 2 weeks of continuous administration, the skin tissue of a hair removal area on the back of the mice in each group is obtained, is fixed and is subjected to HE staining, and the number of hair follicles is counted under a microscope.

[4] = medium dose 1 mg/mL in Vaseline

| Compound | hair growth in the hair removal area on the back of mice (photos) ([1]; high dose 2 mg/mL in Vaseline) | hair growth speed (score 0-3) of the hair removal area [1] | hair growth in the hair removal area on the back of mice (photos) ([1]; low dose 0.5 mg/mL in Vaseline) | hair growth in the hair removal area on the back of mice (photos) [1, 4] | number of hair follicles in the skin tissue of the hair removal area ([2]; high dose 2 mg/mL) | number of hair follicles in the skin tissue of the hair removal area ([2]; low dose 0.5 mg/mL) | number of hair follicles in the skin tissue of the hair removal area ([2]; medium dose 1 mg/mL) | effect on the weight of mice [3] |
| --- | --- | --- | --- | --- | --- | --- | --- | --- |
| C=C(C)[C@@H]1CCC2(C(=O)OC3OC(COC4O[C@H](CO)C(O[C@@H]5O[C@@H](C)[C@H](O)[C@@H](O)[C@H]5O)[C@H](O)[C@H]4O)[C@@H](O)[C@H](O)[C@H]3O)CC[C@]3(C)[C@H](CC[C@@H]4[C@@]5(C)CC[C@H](O[C@@H]6OC[C@H](O)[C@H](O)[C@H]6O[C@@H]6O[C@@H](C)[C@H](O)[C@@H](O)[C@H]6O)[C@@](C)(CO)C5CC[C@]43C)[C@@H]12 (stereo partly drawn) [pulchinenoside B4] | can promote hair growth | significantly increased | can promote hair growth | can promote hair growth | significantly increase | significantly increase | significantly increase |  |
| C[C@@H]1O[C@@H](OC2[C@@H](CO)OC(OCC3OC(OC(=O)C45CCC(C)(C)C[C@@H]4[C@H]4CC[C@@H]6[C@@]7(C)CC[C@H](O[C@@H]8OC[C@H](O)[C@H](O)[C@H]8O[C@@H]8O[C@@H](C)[C@H](O)[C@@H](O)[C@H]8O)C(C)(CO)[C@@H]7CC[C@@]6(C)[C@]4(C)CC5)[C@H](O)[C@@H](O)[C@@H]3O)[C@H](O)[C@H]2O)[C@H](O)[C@H](O)[C@H]1O (stereo partly drawn) [pulchinenoside B5] | can promote hair growth | significantly increased | can promote hair growth | can promote hair growth | significantly increase | significantly increase | significantly increase | no significant effect |
